# Source: patent publication US7301022B2, “Vanilloid receptor ligands and their use in treatments” (Amgen Inc., priority 2005, dated 2007)
# Where a name gives a salt, the structure may show the parent alone.
row,melting point,SMILES
1,111.1 to 113.9 °C,CC(C)CN1CCCCC1C(=O)Nc1cc(C(F)(F)F)ccc1-c1cc(Oc2cccc3ccc(N)nc23)ncn1 (stereo not drawn)
2,< 80 °C,"CC(=O)Nc1nc2c(Oc3cc(-c4ccc(C(F)(F)F)cc4NC(=O)C4(C)CCCCN4CC(C)C)ncn3)cccc2s1 (stereo not drawn) (as salt: trifluoroacetic acid salt) [Example 44, N-(2-(6-(2-Acetamidobenzo[d]thiazol-4-yloxy)pyrimidin-4-yl)-5-(trifluoromethyl)phenyl)-1-isobutyl-2-methylpiperidine-2-carboxamide trifluoroacetic acid salt]"
3,162.9 to 164 °C,"CC1CC[C@@H](C(=O)Nc2cc(C(F)(F)F)ccc2-c2cc(Oc3cccc4ccc(N)nc34)ncn2)N1 (mixture of isomers) [Example 48, (2S,5R,S)-N-(2-(6-(2-Aminoquinolin-8-yloxy)pyrimidin-4-yl)-5-(trifluoromethyl)phenyl)-5-methylpyrrolidine-2-carboxamide]"
4,121.7 to 121.9 °C,"CC(=O)Nc1nc2c(Oc3cc(-c4ccc(C(F)(F)F)nc4NCC4CCCCN4CC(C)C)ncn3)cccc2s1 (racemic) [Example 31, N-(4-(6-(2-(((R,S)-1-isobutylpiperidin-2-yl)methylamino)-6-(trifluoromethyl)pyridin-3-yl)pyrimidin-4-yloxy)benzo[d]thiazol-2-yl)acetamide]"
5,166 to 170 °C,"CC(C)CN1CCCCC1C(C)(C)Nc1nc(C(F)(F)F)ccc1-c1cc(Oc2cccc3sc(N)nc23)ncn1 (stereo not drawn) [Example 5, 4-(6-(2-(2-(1-Isobutylpiperidin-2-yl)propan-2-ylamino)-6-(trifluoromethyl)pyridin-3-yl)pyrimidin-4-yloxy)benzo[d]thiazol-2-amine]"
6,228 to 229 °C,CC(C)CN1CCCCC1CNc1nc(C(F)(F)F)ccc1-c1cc(Oc2cccc3[nH]c(=O)c(N)nc23)ncn1 (stereo not drawn) [Example 6]
7,98.9 to 101.9 °C,"CC(C)CN1CCCCC1CN(C)c1nc(C(F)(F)F)ccc1-c1cc(Oc2cccc3sc(N)nc23)ncn1 (stereo not drawn) [Example 24, 4-(6-(2-(((1-Isobutylpiperidin-2-yl)methyl)(methyl)amino)-6-(trifluoromethyl)pyridin-3-yl)pyrimidin-4-yloxy)benzo[d]thiazol-2-amine]"
8,118 to 118.2 °C,CC(C)CN1CCCCC1CNc1nc(C(F)(F)F)ccc1-c1cc(Oc2cccc3sc(N)nc23)ncn1 (stereo not drawn) [Example 26]
9,123.2 to 125.4 °C,"CC(=O)Nc1nc2c(Oc3cc(-c4ccc(C(F)(F)F)nc4N(C)CC4CCCCN4CC(C)C)ncn3)cccc2s1 (stereo not drawn) [Example 29, N-(4-(6-(2-(((1-isobutylpiperidin-2-yl)methyl)(methyl)amino)-6-(trifluoromethyl)pyridin-3-yl)pyrimidin-4-yloxy)benzo[d]thiazol-2-yl)acetamide]"
10,198.8 to 199.4 °C,"CC(=O)Nc1nc2c(Oc3cc(-c4ccc(C(F)(F)F)cc4NC(=O)[C@@H]4CCN4C(C)C)ncn3)cccc2s1 [Example 37, (2S)-N-(2-(6-(2-Acetamidobenzo[d]thiazol-4-yloxy)pyrimidin-4-yl)-5-(trifluoromethyl)phenyl)-1-isopropylazetidine-2-carboxamide]"
11,174.4 to 174.9 °C,"CC(=O)Nc1nc2c(Oc3cc(-c4ccc(C(F)(F)F)cc4NC(=O)[C@@H]4CCN4CC(C)C)ncn3)cccc2s1 [Example 38, (2S)-N-(2-(6-(2-Acetamidobenzo[d]thiazol-4-yloxy)pyrimidin-4-yl)-5-(trifluoromethyl)phenyl)-1-isobutylazetidine-2-carboxamide]"
12,> 250 °C,"CC(C)CN1CCCCC1C(=O)Nc1cc(C(F)(F)F)ccc1-c1cc(Oc2cccc3[nH]c(=O)c(N)nc23)ncn1 (stereo not drawn) [Example 42, N-(2-(6-(3-Amino-2-oxo-1,2-dihydroquinoxalin-5-yloxy)pyrimidin-4-yl)-5-(trifluoromethyl)phenyl)-1-isobutylpiperidine-2-carboxamide]"
13,212.3 to 213.5 °C,"CC(=O)Nc1nc2c(Oc3cc(-c4ccc(C(F)(F)F)cc4NC(=O)C4CCCCN4CC4CC4)ncn3)cccc2s1 (stereo not drawn) [Example 49, N-(2-(6-(2-Acetamidobenzo[d]thiazol-4-yloxy)pyrimidin-4-yl)-5-(trifluoromethyl)phenyl)-1-(cyclopropylmethyl)piperidine-2-carboxamide]"
14,260 °C (dec.),"CC(=O)Nc1nc2c(Oc3cc(-c4ccc(C(F)(F)F)cc4NC(=O)C4CCCCN4C(C)C)ncn3)cccc2s1 (stereo not drawn) [Example 50, N-(2-(6-(2-Acetamidobenzo[d]thiazol-4-yloxy)pyrimidin-4-yl)-5-(trifluoromethyl)phenyl)-1-isopropylpiperidine-2-carboxamide]"
15,153.4 to 154.9 °C,"CC(=O)Nc1nc2c(Oc3cc(-c4ccc(C(F)(F)F)cc4NC(=O)C4CCCCN4CC(C)C)ncn3)cccc2s1 (stereo not drawn) [Example 51, N-(2-(6-(2-Acetamidobenzo[d]thiazol-4-yloxy)pyrimidin-4-yl)-5-(trifluoromethyl)phenyl)-1-isobutylpiperidine-2-carboxamide]"

# Continued, compound first:
row,SMILES,melting point
1,"CC1(C)CC(Nc2nc(C(F)(F)F)ccc2-c2cc(Oc3cccc4sc(N)nc34)ncn2)CC(C)(C)N1 (as salt: trifluoroacetic acid salt) [Example 35, 4-(6-(2-(2,2,6,6-Tetramethylpiperidin-4-ylamino)-6-(trifluoromethyl)pyridin-3-yl)pyrimidin-4-yloxy)benzo[d]thiazol-2-amine trifluoroacetic acid salt]",264 to 265.1 °C
2,"CC(=O)Nc1nc2c(Oc3cc(-c4ccc(C(F)(F)F)nc4NC4CC(C)(C)NC(C)(C)C4)ncn3)cccc2s1 (as salt: trifluoroacetic acid salt) [Example 36, N-(4-(6-(2-(2,2,6,6-Tetramethylpiperidin-4-ylamino)-6-(trifluoromethyl)-pyridin-3-yl)pyrimidin-4-yloxy)benzo[d]thiazol-2-yl)acetamide trifluoroacetic acid salt]",253.4 to 254.1 °C
3,"CC(=O)Nc1nc2c(Oc3cc(-c4ccc(C(F)(F)F)nc4NC4CCN(CC(C)C)C4)ncn3)cccc2s1 (stereo not drawn) [Example 3, N-(4-(6-(2-(1-Isobutylpyrrolidin-3-ylamino)-6-(trifluoromethyl)pyridin-3-yl)pyrimidin-4-yloxy)benzo[d]thiazol-2-yl)acetamide]",138 to 139 °C
4,"CC(=O)Nc1nc2c(Oc3cc(-c4ccc(C(F)(F)F)nc4NC4CCN(C(C)C)C4)ncn3)cccc2s1 (stereo not drawn) [Example 4, N-(4-(6-(2-(1-Isopropylpyrrolidin-3-ylamino)-6-(trifluoromethyl)pyridin-3-yl)pyrimidin-4-yloxy)benzo[d]thiazol-2-yl)acetamide]",140 to 141 °C
5,CC(C)CN1CCC[C@H]1CNc1nc(C(F)(F)F)ccc1-c1cc(Oc2cccc3sc(N)nc23)ncn1 [Example 25],198 °C (dec.)
6,CC(C)N1CCCCC1CNc1nc(C(F)(F)F)ccc1-c1cc(Oc2cccc3sc(N)nc23)ncn1 (stereo not drawn) [Example 27],211.3 to 213 °C
7,CC(C)CN1CCC[C@H]1CN(C)c1nc(C(F)(F)F)ccc1-c1cc(Oc2cccc3sc(N)nc23)ncn1 [Example 28],93.2 to 96.8 °C
8,CC(=O)Nc1nc2c(Oc3cc(-c4ccc(C(F)(F)F)nc4NC[C@@H]4CCCN4CC(C)C)ncn3)cccc2s1 [Example 30],105.8 to 107.3 °C
9,CC(=O)Nc1nc2c(Oc3cc(-c4ccc(C(F)(F)F)nc4NCC4CCCCN4C(C)C)ncn3)cccc2s1 (stereo not drawn) [Example 32],159.3 to 162 °C
10,"CC(=O)Nc1nc2c(Oc3cc(-c4ccc(C(F)(F)F)cc4NC(=O)C4(C)CCCCN4)ncn3)cccc2s1 (stereo not drawn) [Example 43, N-(2-(6-(2-Acetamidobenzo[d]thiazol-4-yloxy)pyrimidin-4-yl)-5-(trifluoromethyl)phenyl)-2-methylpiperidine-2-carboxamide]",146.4 to 148.8 °C
11,"CC(=O)Nc1nc2c(Oc3cc(-c4ccc(C(F)(F)F)cc4NCc4cncn4Cc4ccccc4)ncn3)cccc2s1 [Example 54, N-(4-(6-(2-((1-Benzyl-1H-imidazol-5-yl)methylamino)-4-(trifluoromethyl)-phenyl)pyrimidin-4-yloxy)benzo[d]thiazol-2-yl)acetamide]",264 to 264.1 °C
12,"CC(=O)Nc1nc2c(Oc3cc(-c4ccc(C(F)(F)F)cc4NCc4cncn4C)ncn3)cccc2s1 [Example 55, N-(4-(6-(2-((1-Methyl-1H-imidazol-5-yl)methylamino)-4-(trifluoromethyl)-phenyl)pyrimidin-4-yloxy)benzo[d]thiazol-2-yl)acetamide]",263 to 265.2 °C
